Laboratory results from ChEMBL document CHEMBL4831492, “Design and synthesis of 2-(2-isonicotinoylhydrazineylidene)propanamides as InhA inhibitors with high antitubercular activity” (Eur J Med Chem, 2021).
In brackets after ≈: the same amount, converted by molar mass. Activity calls are given as the source filed them. The rule behind the calls is not given here.

Columns and labels:
[1] = system: Mycobacterium tuberculosis; assay: Antimycobacterial activity against drug susceptible Mycobacterium tuberculosis H37Rv assessed as minimal inhibitory concentration required for complete inhibition of mycobacterial growth incubated for 21 days; assay type: functional; details: 504 h, time 21 day
Mycobacterium kansasii [2] = assay: Antimycobacterial activity against drug resistant Mycobacterium kansasii 6509/96 assessed as minimal inhibitory concentration required for complete inhibition of mycobacterial growth incubated for 21 days; assay type: functional; details: 6509/96, 504 h, time 21 day
Mycobacterium kansasii [3] = assay: Antimycobacterial activity against drug resistant Mycobacterium kansasii 235/80 assessed as minimal inhibitory concentration required for complete inhibition of mycobacterial growth incubated for 14 days; assay type: functional; details: 235/80, 336 h, time 14 day
[4] = system: Mycobacterium tuberculosis; assay: Inhibition of mycolic acid synthesis in Mycobacterium tuberculosis H37Ra assessed as decrease in production of trehalose dimycolates at MIC incubated for 24 hrs followed by 14C labelling and further incubated for 24 hrs by TLC based autoradiography analysis; assay type: functional, organism-based; details: time 48.0 hrs
Mycobacterium kansasii [5] = assay: Antimycobacterial activity against drug resistant Mycobacterium kansasii 235/80 assessed as minimal inhibitory concentration required for complete inhibition of mycobacterial growth incubated for 7 days; assay type: functional; details: 235/80, 168 h, time 7 day
[6] = Selectivity index, ratio of CC50 for cytotoxicity against human HepG2 cells to MIC for antimycobacterial activity against drug susceptible Mycobacterium […]; assay type: toxicity, cell-based; details: read-out: Selectivity Index
[7] = system: Mycobacterium tuberculosis; assay: Inhibition of mycolic acid synthesis in Mycobacterium tuberculosis H37Ra assessed as decrease in production of trehalose monomycolates at MIC incubated for 24 hrs followed by 14C labelling and further incubated for 24 hrs by TLC based autoradiography analysis; assay type: functional, organism-based; details: time 48.0 hrs
[8] = system: Mycobacterium tuberculosis; assay: Antimycobacterial activity against drug susceptible Mycobacterium tuberculosis H37Rv assessed as minimal inhibitory concentration required for complete inhibition of mycobacterial growth incubated for 14 days; assay type: functional; details: 336 h, time 14 day
HepG2 [9] = assay: Cytotoxicity against human HepG2 cells assessed as reduction in cell viability incubated overnight followed by compound washout by MTT assay; assay type: cell-based
Mycobacterium kansasii [10] = assay: Antimycobacterial activity against drug resistant Mycobacterium kansasii 6509/96 assessed as minimal inhibitory concentration required for complete inhibition of mycobacterial growth incubated for 14 days; assay type: functional; details: 6509/96, 336 h, time 14 day
[11] = system: Mycobacterium tuberculosis; assay: Antimycobacterial activity against Mycobacterium tuberculosis H37Ra carrying pMC261/pVV16 plasmid assessed as bacterial growth inhibition incubated for 28 days by drop dilution method; assay type: functional; details: 672 h, time 28 day
Mycobacterium avium [12] = assay: Antimycobacterial activity against drug resistant Mycobacterium avium 330/88 assessed as minimal inhibitory concentration required for complete inhibition of mycobacterial growth incubated for 14 days; assay type: functional; details: 330/88, 336 h, time 14 day
Mycobacterium kansasii [13] = assay: Antimycobacterial activity against drug resistant Mycobacterium kansasii 235/80 assessed as minimal inhibitory concentration required for complete inhibition of mycobacterial growth incubated for 21 days; assay type: functional; details: 235/80, 504 h, time 21 day
[14] = system: Mycobacterium tuberculosis; assay: Inhibition of mycolic acid synthesis in Mycobacterium tuberculosis H37Ra assessed as decrease in production of mycolic acid at MIC incubated for 24 hrs followed by 14C addition and further incubated for 24 hrs by TLC based autoradiography analysis; assay type: functional, organism-based; details: time 48.0 hrs
[15] = Selectivity index, ratio of CC50 for cytotoxicity against human HepG2 cells to MIC for antimycobacterial activity against drug susceptible Mycobacterium tuberculosis H37Rv; assay type: toxicity, cell-based; details: read-out: Selectivity Index
Mycobacterium kansasii [16] = assay: Antimycobacterial activity against drug resistant Mycobacterium kansasii 6509/96 assessed as minimal inhibitory concentration required for complete inhibition of mycobacterial growth incubated for 7 days; assay type: functional; details: 6509/96, 168 h, time 7 day
Mycobacterium avium [17] = assay: Antimycobacterial activity against drug resistant Mycobacterium avium 330/88 assessed as minimal inhibitory concentration required for complete inhibition of mycobacterial growth incubated for 21 days; assay type: functional; details: 330/88, 504 h, time 21 day
[18] = system: Mycobacterium tuberculosis; assay: Inhibition of mycolic acid synthesis in Mycobacterium tuberculosis H37Ra assessed as decrease in production of standard fatty acid at MIC incubated for 24 hrs followed by 14C labelling and further incubated for 24 hrs by TLC based autoradiography analysis; assay type: functional, organism-based; details: time 48.0 hrs
HepG2 [19] = assay: Cytostatic activity in human HepG2 cells assessed as reduction in cell viability incubated overnight followed by compound washout and further incubated for 72 hrs in medium containing serum by MTT assay; assay type: functional, cell-based; details: HepG2, 72 h
Mycobacterium avium [20] = assay: Antimycobacterial activity against drug resistant Mycobacterium avium 330/88 assessed as inhibition of mycobacterial growth at 250 uM incubated for 21 days; assay type: functional, organism-based; details: time 21.0 day
Mycobacterium avium [21] = assay: Antimycobacterial activity against drug resistant Mycobacterium avium 330/88 assessed as inhibition of mycobacterial growth at 250 uM incubated for 14 days; assay type: functional, organism-based; details: time 14.0 day
Mycobacterium avium [22] = assay: Antimycobacterial activity against drug resistant Mycobacterium avium 330/88 assessed as inhibition of mycobacterial growth at 500 uM incubated for 14 days; assay type: functional, organism-based; details: time 14.0 day
Mycobacterium avium [23] = assay: Antimycobacterial activity against drug resistant Mycobacterium avium 330/88 assessed as inhibition of mycobacterial growth at 500 uM incubated for 21 days; assay type: functional, organism-based; details: time 21.0 day
Mycobacterium avium [24] = assay: Antimycobacterial activity against drug resistant Mycobacterium avium 330/88 assessed as inhibition of mycobacterial growth at 125 uM incubated for 21 days; assay type: functional, organism-based; details: time 21.0 day
Mycobacterium avium [25] = assay: Antimycobacterial activity against drug resistant Mycobacterium avium 330/88 assessed as inhibition of mycobacterial growth at 125 uM incubated for 14 days; assay type: functional, organism-based; details: time 14.0 day

Structure (SMILES)	MIC [1] [µM]	MIC (Mycobacterium kansasii [2]) [µM]	MIC (Mycobacterium kansasii [3]) [µM]	MIC (Mycobacterium kansasii [5]) [µM]	selectivity ratio [6]	MIC [8] [µM]	IC50 (HepG2 [9]) [µM]	MIC (Mycobacterium kansasii [10]) [µM]	MIC (Mycobacterium avium [12]) [µM]	MIC (Mycobacterium kansasii [13]) [µM]	selectivity ratio [15]	MIC (Mycobacterium kansasii [16]) [µM]	MIC (Mycobacterium avium [17]) [µM]	IC50 (HepG2 [19]) [µM]	also measured
C/C(=N\NC(=O)c1ccncc1)C(=O)Nc1ccc(I)cc1	0.25 (≈ 0.102 µg/mL)	4 (≈ 1.63 µg/mL)	8 (≈ 3.27 µg/mL)	8 (≈ 3.27 µg/mL)	> 12.5	0.25 (≈ 0.102 µg/mL)	> 50	4 (≈ 1.63 µg/mL)	250 (≈ 102 µg/mL)	8 (≈ 3.27 µg/mL)	> 200	2 (≈ 0.816 µg/mL)	250 (≈ 102 µg/mL)	> 50	inhibition [4]: Active; inhibition [7]: Active; MIC [11]: 0.5 µM (≈ 0.204 µg/mL); inhibition [14]: Active; inhibition [18]: inactive
C/C(=N\NC(=O)c1ccncc1)C(=O)Nc1cc(Cl)cc(Cl)c1	0.25 (≈ 0.0878 µg/mL)	32 (≈ 11.2 µg/mL)	> 250	> 250	> 1.56	≤ 0.25	> 50	16 (≈ 5.62 µg/mL)	> 250	> 250	> 200	16 (≈ 5.62 µg/mL)	> 250	> 50	–
C/C(=N\NC(=O)c1ccncc1)C(=O)Nc1ccc(C(F)(F)C(F)(F)C(F)(F)C(F)(F)C(F)(F)C(F)(F)C(F)(F)C(F)(F)F)cc1	0.5 (≈ 0.35 µg/mL)	> 1000	–	–	–	0.25 (≈ 0.175 µg/mL)	–	> 1000	> 1000	–	–	> 1000	> 1000	–	–
NNC(=O)c1ccncc1 [ISONIAZID]	1 (≈ 0.137 µg/mL)	8 (≈ 1.1 µg/mL)	> 250	> 250	–	0.5 (≈ 0.0686 µg/mL)	–	8 (≈ 1.1 µg/mL)	> 250	> 250	–	4 (≈ 0.549 µg/mL)	> 250	–	–
C/C(=N\NC(=O)c1ccncc1)C(=O)O [PYRUVIC ACID ISONIAZID]	1 (≈ 0.207 µg/mL)	16 (≈ 3.32 µg/mL)	16 (≈ 3.32 µg/mL)	8 (≈ 1.66 µg/mL)	> 3.12	1 (≈ 0.207 µg/mL)	> 50	16 (≈ 3.32 µg/mL)	500 (≈ 104 µg/mL)	16 (≈ 3.32 µg/mL)	> 50	8 (≈ 1.66 µg/mL)	> 1000	> 50	–
C/C(=N\NC(=O)c1ccncc1)C(=O)Nc1ccc(Cl)c(Cl)c1	0.06 (≈ 0.0211 µg/mL)	16 (≈ 5.62 µg/mL)	> 250	> 250	> 3.12	0.06 (≈ 0.0211 µg/mL)	> 50	8 (≈ 2.81 µg/mL)	> 250	> 250	> 833	4 (≈ 1.4 µg/mL)	> 250	> 50	–
C/C(=N\NC(=O)c1ccncc1)C(=O)Nc1ccc(OC(F)F)cc1	0.5 (≈ 0.174 µg/mL)	8 (≈ 2.79 µg/mL)	–	–	–	0.25 (≈ 0.0871 µg/mL)	–	4 (≈ 1.39 µg/mL)	> 1000	–	–	2 (≈ 0.697 µg/mL)	> 1000	–	–
C/C(=N\NC(=O)c1ccncc1)C(=O)Nc1ccc(SC(F)(F)F)cc1	0.5 (≈ 0.191 µg/mL)	4 (≈ 1.53 µg/mL)	–	–	–	0.5 (≈ 0.191 µg/mL)	–	4 (≈ 1.53 µg/mL)	–	–	–	4 (≈ 1.53 µg/mL)	–	–	Activity (Mycobacterium avium [20]): inactive; Activity (Mycobacterium avium [21]): inactive
C/C(=N\NC(=O)c1ccncc1)C(=O)Nc1ccc(F)c(F)c1	0.5 (≈ 0.159 µg/mL)	8 (≈ 2.55 µg/mL)	–	–	–	0.25 (≈ 0.0796 µg/mL)	–	4 (≈ 1.27 µg/mL)	–	–	–	2 (≈ 0.637 µg/mL)	–	–	Activity (Mycobacterium avium [22]): inactive; Activity (Mycobacterium avium [23]): inactive
C/C(=N\NC(=O)c1ccncc1)C(=O)Nc1ccc(OC(F)(F)F)cc1	≤ 0.03	4 (≈ 1.47 µg/mL)	8 (≈ 2.93 µg/mL)	8 (≈ 2.93 µg/mL)	> 12.5	≤ 0.03	> 50	2 (≈ 0.733 µg/mL)	–	16 (≈ 5.86 µg/mL)	> 1670	2 (≈ 0.733 µg/mL)	–	> 50	inhibition [4]: Active; inhibition [7]: Active; MIC [11]: 0.3 µM (≈ 0.11 µg/mL); inhibition [14]: Active; Activity (Mycobacterium avium [24]): inactive; Activity (Mycobacterium avium [25]): inactive; inhibition [18]: inactive
C/C(=N\NC(=O)c1ccncc1)C(=O)Nc1ccc(F)cc1	0.25 (≈ 0.0751 µg/mL)	8 (≈ 2.4 µg/mL)	125 (≈ 37.5 µg/mL)	62.5 (≈ 18.8 µg/mL)	> 625	0.25 (≈ 0.0751 µg/mL)	> 50	4 (≈ 1.2 µg/mL)	> 250	250 (≈ 75.1 µg/mL)	> 200	2 (≈ 0.601 µg/mL)	> 250	> 50	–
